Laboratory results: ChEMBL document CHEMBL4396930, “Identification of new dual FABP4/5 inhibitors based on a naphthalene-1-sulfonamide FABP4 inhibitor” (Bioorg Med Chem, 2019)

Columns and labels:
3T3-L1 = experiment: Cytotoxicity against mouse 3T3L1 cells assessed as reduction in cell viability at 30 to 60 uM incubated for 24 hrs by MTT assay; assay type: cell-based; conditions: 3t3-l1, 24 h
RAW264.7 [1] = experiment: Cytotoxicity against mouse RAW264.7 cells assessed as reduction in cell viability at 30 to 60 uM incubated for 24 hrs by MTT assay; assay type: cell-based; conditions: raw264.7, 24 h
[2] = target: Fatty acid-binding protein, adipocyte (Homo sapiens, UniProt P15090); experiment: Displacement of 1,8-ANS from human recombinant full length N-terminal his-tagged FABP4 expressed in Escherichia coli BL21 (DE3) incubated for 3 mins by fluorescence based assay
Fatty acid-binding protein, adipocyte, sequence (P15090 whole entry): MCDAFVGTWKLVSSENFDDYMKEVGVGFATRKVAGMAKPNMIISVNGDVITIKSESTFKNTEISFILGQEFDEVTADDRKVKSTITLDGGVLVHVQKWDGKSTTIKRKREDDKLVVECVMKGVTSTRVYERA

[3] = target: Fatty acid-binding protein 5 (Homo sapiens, UniProt Q01469); experiment: Displacement of 1,8-ANS from human recombinant full length N-terminal his-tagged FABP5 expressed in Escherichia coli BL21 (DE3) incubated for 3 mins by fluorescence based assay
Fatty acid-binding protein 5, sequence (Q01469 whole entry): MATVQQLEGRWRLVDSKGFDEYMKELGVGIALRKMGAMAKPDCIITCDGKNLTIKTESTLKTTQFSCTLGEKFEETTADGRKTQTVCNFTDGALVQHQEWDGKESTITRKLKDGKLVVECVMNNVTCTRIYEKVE

RAW264.7 [4] = experiment: Antiinflammatory activity against mouse RAW264.7 cells assessed as inhibition of LPS-induced MCP-1 gene expression level at 30 uM preincubated for 12 hrs followed by LPS addition and measured after 6 hrs by qRT PCR analysis relative to control; assay type: functional
RAW264.7 [5] = experiment: Antiinflammatory activity against mouse RAW264.7 cells assessed as inhibition of LPS-induced TNFalpha gene expression level at 30 uM preincubated for 12 hrs followed by LPS addition and measured after 6 hrs by qRT PCR analysis relative to control; assay type: functional
[6] = target: Fatty acid-binding protein, heart (Homo sapiens, UniProt P05413); experiment: Displacement of 1,8-ANS from FABP3 (unknown origin) incubated for 3 mins by fluorescence based assay
Fatty acid-binding protein, heart, sequence (P05413 whole entry): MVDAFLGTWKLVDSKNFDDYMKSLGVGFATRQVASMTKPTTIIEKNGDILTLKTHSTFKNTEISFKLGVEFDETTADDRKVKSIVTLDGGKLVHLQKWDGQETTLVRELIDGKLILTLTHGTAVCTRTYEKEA

IC50 [2] [nM]	IC50 [3] [µM]	SMILES	other results
		COc1ccc(S(=O)(=O)Nc2ccc(F)c(C(=O)O)c2)c2ccccc12	Activity (3T3-L1): Non-Toxic; Activity (RAW264.7 [1]): Non-Toxic
1700		COc1c(-c2cccc(N)c2)cc(S(=O)(=O)Nc2ccc(F)c(C(=O)O)c2)c2ccccc12	
2980		COc1c(-c2ccc(F)c(F)c2)cc(S(=O)(=O)Nc2ccc(F)c(C(=O)O)c2)c2ccccc12	
1890		COc1c(-c2cccc(O)c2)cc(S(=O)(=O)Nc2ccc(F)c(C(=O)O)c2)c2ccccc12	
1970	4.85	O=C(O)c1cc(NS(=O)(=O)c2ccc(OCCC3CCCCC3)c3ccccc23)ccc1F	Activity (3T3-L1): Non-Toxic; Activity (RAW264.7 [1]): Non-Toxic; inhibition at 30 µM (RAW264.7 [4]): 29%; inhibition at 30 µM (RAW264.7 [5]): 24%; IC50 [6]: 55.6 µM
3590	3.63	O=C(O)c1cc(NS(=O)(=O)c2ccc(OCCCC3CCCCC3)c3ccccc23)ccc1F	
2300	2.76	CCCCCCCOc1ccc(S(=O)(=O)Nc2ccc(F)c(C(=O)O)c2)c2ccccc12	
2430	4.17	CCCCCCOc1ccc(S(=O)(=O)Nc2ccc(F)c(C(=O)O)c2)c2ccccc12	
2370	3.3	O=C(O)c1cc(NS(=O)(=O)c2ccc(OC3CCCCCC3)c3ccccc23)ccc1F	
14800	4.61	O=C(O)c1cc(NS(=O)(=O)c2ccc(OCC34CC5CC(CC(C5)C3)C4)c3ccccc23)ccc1F	
1190		COc1c(-c2ccc(O)cc2)cc(S(=O)(=O)Nc2ccc(F)c(C(=O)O)c2)c2ccccc12	
4040	4.19	CCCCCCCCOc1ccc(S(=O)(=O)Nc2ccc(F)c(C(=O)O)c2)c2ccccc12	
2990	8.32	CCCCCOc1ccc(S(=O)(=O)Nc2ccc(F)c(C(=O)O)c2)c2ccccc12	
2640		CCOc1ccc(S(=O)(=O)Nc2ccc(F)c(C(=O)O)c2)c2ccccc12	
2200	7.66	O=C(O)c1cc(NS(=O)(=O)c2ccc(OC3CCCCC3)c3ccccc23)ccc1F	
1580		COc1c(-c2ccc(F)c(Cl)c2)cc(S(=O)(=O)Nc2ccc(F)c(C(=O)O)c2)c2ccccc12	Activity (3T3-L1): Non-Toxic; Activity (RAW264.7 [1]): Non-Toxic; inhibition at 30 µM (RAW264.7 [4]): 32%; inhibition at 30 µM (RAW264.7 [5]): 23%; IC50 [6]: 46.8 µM
1740	10	COc1c(-c2ccc(F)cc2)cc(S(=O)(=O)Nc2ccc(F)c(C(=O)O)c2)c2ccccc12	
3530		COc1c(-c2ccoc2)cc(S(=O)(=O)Nc2ccc(F)c(C(=O)O)c2)c2ccccc12	
4380		COc1c(-c2ccc(Cl)c(Cl)c2)cc(S(=O)(=O)Nc2ccc(F)c(C(=O)O)c2)c2ccccc12	
4730	4.48	CCCCCCCCCCOc1ccc(S(=O)(=O)Nc2ccc(F)c(C(=O)O)c2)c2ccccc12	
24800		CCCCCCCCCCCCOc1ccc(S(=O)(=O)Nc2ccc(F)c(C(=O)O)c2)c2ccccc12	
3150		O=C(O)c1cc(NS(=O)(=O)c2ccc(OCc3ccccc3)c3ccccc23)ccc1F	
1190		COc1c(-c2ccccc2)cc(S(=O)(=O)Nc2ccc(F)c(C(=O)O)c2)c2ccccc12	
		Cc1c(Cl)cccc1OCc1cc(=O)n2nc(-c3ccccc3)nc2[nH]1	Activity (3T3-L1): Toxic; Activity (RAW264.7 [1]): Toxic
3540		COc1c(-c2ccncc2)cc(S(=O)(=O)Nc2ccc(F)c(C(=O)O)c2)c2ccccc12	
2410	8.12	O=C(O)c1cc(NS(=O)(=O)c2ccc(OCC3CCCCC3)c3ccccc23)ccc1F	
